Experimental data as given in ChEMBL document CHEMBL1132969, “Design, synthesis, and enzymatic evaluation of multisubstrate analogue inhibitors of Escherichia coli thymidine phosphorylase” (J Med Chem, 2000).

These compounds were tested against Thymidine phosphorylase (Escherichia coli K-12) (UniProt P07650) (assay: Inhibition of Escherichia coli Thymidine Phosphorylase at a concentration of 1000 uM after 20 minutes).
Chain of Thymidine phosphorylase (Escherichia coli K-12) (P07650 whole entry, looked up): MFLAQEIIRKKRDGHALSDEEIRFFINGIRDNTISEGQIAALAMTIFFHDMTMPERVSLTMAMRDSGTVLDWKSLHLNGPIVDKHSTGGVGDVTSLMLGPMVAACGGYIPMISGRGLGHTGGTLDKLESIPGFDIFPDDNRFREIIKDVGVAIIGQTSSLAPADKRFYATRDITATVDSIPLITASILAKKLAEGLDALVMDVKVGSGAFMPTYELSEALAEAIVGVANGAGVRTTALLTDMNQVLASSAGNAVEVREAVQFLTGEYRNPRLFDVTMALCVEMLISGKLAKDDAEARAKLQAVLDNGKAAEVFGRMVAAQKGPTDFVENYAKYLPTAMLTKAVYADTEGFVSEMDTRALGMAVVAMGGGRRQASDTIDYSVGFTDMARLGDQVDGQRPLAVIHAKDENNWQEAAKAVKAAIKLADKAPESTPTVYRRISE

| SMILES | inhibition [%] |
| --- | --- |
| Cc1cn(CC(O)C(O)COCOCP(=O)(OC(C)C)OC(C)C)c(=O)[nH]c1=O (stereo not given) | 0 |
| Cc1cn(CCCCCCP(=O)(O)O)c(=O)[nH]c1=O | 11 |
| CCOP(=O)(CCCCCCCCn1cc(C)c(=O)[nH]c1=O)OCC | 0 |
| O=c1[nH]c(=O)n(CCCCCCCCP(=O)(O)O)c2[nH]ccc12 | 97 |
| Nc1c(Br)c(=O)[nH]c(=O)n1CCCCCCCCP(=O)(O)O | 94 |
| Cc1cn(C/C=C\COCOCP(=O)(O)O)c(=O)[nH]c1=O | 34 |
| Cc1cn(CC(O)C(O)COCP(=O)(OC(C)C)OC(C)C)c(=O)[nH]c1=O (stereo not given) | 0 |
| Cc1cn(CCCCOCP(=O)(O)O)c(=O)[nH]c1=O | 27 |
| Cc1cn(CCCCOCP(=O)(OC(C)C)OC(C)C)c(=O)[nH]c1=O | 0 |
| Cc1cn(C/C=C\COCOCP(=O)(OC(C)C)OC(C)C)c(=O)[nH]c1=O | 0 |
| CCOP(=O)(CCCCCCCn1cc(C)c(=O)[nH]c1=O)OCC | 0 |
| Cc1cn(CCCCCCCP(=O)(O)O)c(=O)[nH]c1=O | 73 |
| CCOP(=O)(CCCCCCCCCn1cc(C)c(=O)[nH]c1=O)OCC | 4 |
| Cc1cn(CCCCCCCCCP(=O)(O)O)c(=O)[nH]c1=O | 81 |
| Cc1cn(COC/C=C\COCP(=O)(O)O)c(=O)[nH]c1=O | 0 |
| Cc1cn(CCCCCCCCP(=O)(OC(C)C)OC(C)C)c(=O)[nH]c1=O | 0 |
| Cc1cn(C/C=C\COCP(=O)(OC(C)C)OC(C)C)c(=O)[nH]c1=O | 0 |
| Cc1cn(C/C=C\COCP(=O)(O)O)c(=O)[nH]c1=O | 0 |
| CCOP(=O)(CCCCCCCCn1c(N)c(Br)c(=O)[nH]c1=O)OCC | 21 |
| Cc1cn(CC(O)C(O)COCOCP(=O)(O)O)c(=O)[nH]c1=O (stereo not given) | 0 |
| Cc1cn(CCCCCCCCP(=O)(O)O)c(=O)[nH]c1=O | 75 |
| Cc1cn(CCCCOCOCP(=O)(O)O)c(=O)[nH]c1=O | 0 |
| Cc1cn(CCCCOCOCP(=O)(OC(C)C)OC(C)C)c(=O)[nH]c1=O | 0 |
| Cc1cn(CC(O)C(O)COCP(=O)(O)O)c(=O)[nH]c1=O (stereo not given) | 0 |

Each compound was assayed against Thymidine phosphorylase (Escherichia coli K-12) (UniProt P07650) (assay: Inhibition of Escherichia coli Thymidine Phosphorylase at a concentration of 1000 uM after 40 minutes).

| SMILES | inhibition [%] |
| --- | --- |
| Cc1cn(CC(O)C(O)COCOCP(=O)(OC(C)C)OC(C)C)c(=O)[nH]c1=O (stereo not given) | 0 |
| Cc1cn(CCCCCCP(=O)(O)O)c(=O)[nH]c1=O | 5 |
| CCOP(=O)(CCCCCCCCn1cc(C)c(=O)[nH]c1=O)OCC | 0 |
| O=c1[nH]c(=O)n(CCCCCCCCP(=O)(O)O)c2[nH]ccc12 | 96 |
| Nc1c(Br)c(=O)[nH]c(=O)n1CCCCCCCCP(=O)(O)O | 91 |
| Cc1cn(C/C=C\COCOCP(=O)(O)O)c(=O)[nH]c1=O | 22 |
| Cc1cn(CC(O)C(O)COCP(=O)(OC(C)C)OC(C)C)c(=O)[nH]c1=O (stereo not given) | 0 |
| Cc1cn(CCCCOCP(=O)(O)O)c(=O)[nH]c1=O | 17 |
| Cc1cn(CCCCOCP(=O)(OC(C)C)OC(C)C)c(=O)[nH]c1=O | 0 |
| Cc1cn(C/C=C\COCOCP(=O)(OC(C)C)OC(C)C)c(=O)[nH]c1=O | 0 |
| CCOP(=O)(CCCCCCCn1cc(C)c(=O)[nH]c1=O)OCC | 0 |
| Cc1cn(CCCCCCCP(=O)(O)O)c(=O)[nH]c1=O | 63 |
| CCOP(=O)(CCCCCCCCCn1cc(C)c(=O)[nH]c1=O)OCC | 3 |
| Cc1cn(CCCCCCCCCP(=O)(O)O)c(=O)[nH]c1=O | 75 |
| Cc1cn(COC/C=C\COCP(=O)(O)O)c(=O)[nH]c1=O | 0 |
| Cc1cn(CCCCCCCCP(=O)(OC(C)C)OC(C)C)c(=O)[nH]c1=O | 0 |
| Cc1cn(C/C=C\COCP(=O)(OC(C)C)OC(C)C)c(=O)[nH]c1=O | 0 |
| Cc1cn(C/C=C\COCP(=O)(O)O)c(=O)[nH]c1=O | 0 |
| CCOP(=O)(CCCCCCCCn1c(N)c(Br)c(=O)[nH]c1=O)OCC | 16 |
| Cc1cn(CC(O)C(O)COCOCP(=O)(O)O)c(=O)[nH]c1=O (stereo not given) | 0 |
| Cc1cn(CCCCCCCCP(=O)(O)O)c(=O)[nH]c1=O | 68 |
| Cc1cn(CCCCOCOCP(=O)(O)O)c(=O)[nH]c1=O | 0 |
| Cc1cn(CCCCOCOCP(=O)(OC(C)C)OC(C)C)c(=O)[nH]c1=O | 0 |
| Cc1cn(CC(O)C(O)COCP(=O)(O)O)c(=O)[nH]c1=O (stereo not given) | 0 |

Each compound was assayed against Thymidine phosphorylase (Escherichia coli K-12) (UniProt P07650) (assay: Inhibition of Escherichia coli Thymidine Phosphorylase at a concentration of 1000 uM after 60 minutes).

| SMILES | inhibition [%] |
| --- | --- |
| Cc1cn(CC(O)C(O)COCOCP(=O)(OC(C)C)OC(C)C)c(=O)[nH]c1=O (stereo not given) | 0 |
| Cc1cn(CCCCCCP(=O)(O)O)c(=O)[nH]c1=O | 2 |
| CCOP(=O)(CCCCCCCCn1cc(C)c(=O)[nH]c1=O)OCC | 0 |
| O=c1[nH]c(=O)n(CCCCCCCCP(=O)(O)O)c2[nH]ccc12 | 94 |
| Nc1c(Br)c(=O)[nH]c(=O)n1CCCCCCCCP(=O)(O)O | 89 |
| Cc1cn(C/C=C\COCOCP(=O)(O)O)c(=O)[nH]c1=O | 17 |
| Cc1cn(CC(O)C(O)COCP(=O)(OC(C)C)OC(C)C)c(=O)[nH]c1=O (stereo not given) | 0 |
| Cc1cn(CCCCOCP(=O)(O)O)c(=O)[nH]c1=O | 12 |
| Cc1cn(CCCCOCP(=O)(OC(C)C)OC(C)C)c(=O)[nH]c1=O | 0 |
| Cc1cn(C/C=C\COCOCP(=O)(OC(C)C)OC(C)C)c(=O)[nH]c1=O | 0 |
| CCOP(=O)(CCCCCCCn1cc(C)c(=O)[nH]c1=O)OCC | 0 |
| Cc1cn(CCCCCCCP(=O)(O)O)c(=O)[nH]c1=O | 55 |
| CCOP(=O)(CCCCCCCCCn1cc(C)c(=O)[nH]c1=O)OCC | 2 |
| Cc1cn(CCCCCCCCCP(=O)(O)O)c(=O)[nH]c1=O | 70 |
| Cc1cn(COC/C=C\COCP(=O)(O)O)c(=O)[nH]c1=O | 0 |
| Cc1cn(CCCCCCCCP(=O)(OC(C)C)OC(C)C)c(=O)[nH]c1=O | 0 |
| Cc1cn(C/C=C\COCP(=O)(OC(C)C)OC(C)C)c(=O)[nH]c1=O | 0 |
| Cc1cn(C/C=C\COCP(=O)(O)O)c(=O)[nH]c1=O | 0 |
| CCOP(=O)(CCCCCCCCn1c(N)c(Br)c(=O)[nH]c1=O)OCC | 10 |
| Cc1cn(CC(O)C(O)COCOCP(=O)(O)O)c(=O)[nH]c1=O (stereo not given) | 0 |
| Cc1cn(CCCCCCCCP(=O)(O)O)c(=O)[nH]c1=O | 61 |
| Cc1cn(CCCCOCOCP(=O)(O)O)c(=O)[nH]c1=O | 0 |
| Cc1cn(CCCCOCOCP(=O)(OC(C)C)OC(C)C)c(=O)[nH]c1=O | 0 |
| Cc1cn(CC(O)C(O)COCP(=O)(O)O)c(=O)[nH]c1=O (stereo not given) | 0 |

Each compound was assayed against Thymidine phosphorylase (Escherichia coli) (UniProt P07650) (assay: Inhibition of Escherichia coli TPase at a concentration of 500 uM after 20 minutes).
Chain of Thymidine phosphorylase (Escherichia coli) (P07650 whole entry, looked up): as above

| SMILES | inhibition [%] |
| --- | --- |
| CCOP(=O)(CCCCCCCCn1c(=O)[nH]c(=O)c2cc[nH]c21)OCC | 43 |

The compounds below were run against Thymidine phosphorylase (Escherichia coli) (UniProt P07650) (assay: Inhibition of Escherichia coli TPase at a concentration of 500 uM after 40 minutes).

| SMILES | inhibition [%] |
| --- | --- |
| CCOP(=O)(CCCCCCCCn1c(=O)[nH]c(=O)c2cc[nH]c21)OCC | 37 |

What follows are compounds tested against Thymidine phosphorylase (Escherichia coli) (UniProt P07650) (assay: Inhibition of Escherichia coli TPase at a concentration of 500 uM after 60 minutes).

| SMILES | inhibition [%] |
| --- | --- |
| CCOP(=O)(CCCCCCCCn1c(=O)[nH]c(=O)c2cc[nH]c21)OCC | 27 |
